These are literature values, as cited in patent publication EP1165099B1, “ANGIOTENSIN II AND ANALOGS THEREOF FOR LIMITING SCAR AND ADHESION FORMATION” (UNIVERSITY OF SOUTHERN CALIFORNIA, priority 1999, dated 2006).

In this data set the test system is AT2 receptor.

With Asp-Arg-Val-Tyr-Ile-His-Pro-Phe [AII], the “affinity for AT2 than AT1” value (ratio of affinity AT2 over AT1) is 100 times.
For the substance “Asp-Arg-Val-Tyr-Ile-Xaa-Pro-Phe [(p-NH2-Phe)6-AII]”, where the note is “experimental models of the cited literature”, the binding characteristics result is given as “comparable to AT2 antagonists”.
